Earlier results on nine compounds are cited in US20080300304A1, “Ginger Fraction For Inhibiting Human Cyp Enzymes” (priority 2005, published 2008).

Take `C/C=C/C[C@@H](C)C(=O)[C@H]1C(=O)N[C@@H](C(C)C)C(=O)N(C)CC(=O)N(C)[C@@H](CC(C)C)C(=O)N[C@@H](C(C)C)C(=O)N(C)[C@@H](CC(C)C)C(=O)N[C@@H](C)C(=O)N[C@H](C)C(=O)N(C)[C@@H](CC(C)C)C(=O)N(C)[C@@H](CC(C)C)C(=O)N(C)[C@@H](C(C)C)C(=O)N1C` [valspodar]: the “oral availability [%]” value is 34%. Regarding `CO[C@H]1/C=C/O[C@@]2(C)Oc3c(C)c(O)c4c(c3C2=O)C2=NC3(CCN(CC(C)C)CC3)NC2=C(NC(=O)/C(C)=C\C=C\[C@H](C)[C@H](O)[C@@H](C)[C@@H](O)[C@@H](C)[C@H](OC(C)=O)[C@@H]1C)C4=O` [rifabutin], the “oral availability [%]” value was 20%. `C=CC[C@@H]1/C=C(\C)C[C@H](C)C[C@H](OC)[C@H]2O[C@@](O)(C(=O)C(=O)N3CCCC[C@H]3C(=O)O[C@H](/C(C)=C/[C@@H]3CC[C@@H](O)[C@H](OC)C3)[C@H](C)[C@@H](O)CC1=O)[C@H](C)C[C@@H]2OC` [tacrolimus]: the “oral availability [%]” value was 16%. For the compound `CC(C)c1c(C(=O)Nc2ccccc2)c(-c2ccccc2)c(-c2ccc(F)cc2)n1CC[C@@H](O)C[C@@H](O)CC(=O)O` [atorvastatin], the “oral availability [%]” value was 12%. Consider `COc1cc(N)c(Cl)cc1C(=O)NC1CCN(CCCOc2ccc(F)cc2)CC1OC` (stereo not drawn) [cisapride], for which the “oral availability [%]” value was 38%. Regarding `CCOC(=O)C1=C(C)NC(C)=C(C(=O)OC)C1c1cccc(Cl)c1Cl` (stereo not drawn) [felodipine], the “oral availability [%]” value is on record as 15%.

`CC[C@H](C)C(=O)O[C@H]1C[C@@H](C)C=C2C=C[C@H](C)[C@H](CC[C@@H]3C[C@@H](O)CC(=O)O3)[C@H]21` [lovastatin]: the “oral availability [%]” value is reported as 4%.

`CO[C@H]1C[C@@H]2CC[C@@H](C)[C@@](O)(O2)C(=O)C(=O)N2CCCC[C@H]2C(=O)O[C@H]([C@H](C)C[C@@H]2CC[C@@H](O)[C@H](OC)C2)CC(=O)[C@H](C)/C=C(\C)[C@@H](O)[C@@H](OC)C(=O)[C@H](C)C[C@H](C)/C=C/C=C/C=C/1C` [sirolimus]: the “oral availability [%]” value is recorded as 15%. For the compound `CC(=O)O[C@@]12CO[C@@H]1C[C@H](O)[C@@]1(C)C(=O)[C@H](O)C3=C(C)[C@@H](OC(=O)[C@H](O)[C@@H](NC(=O)OC(C)(C)C)c4ccccc4)C[C@@](O)([C@@H](OC(=O)c4ccccc4)[C@H]21)C3(C)C` [docetaxel], the “oral availability [%]” value was 8%.
